For data set [1] the following is noted: ref [58]; cited from earlier work.
The test system of data set [2] is cynomolgus PD-L1. As to conditions: flow staining of SDGF-PDL1B1G1-expressing cells.
For data set [3] the following is noted: 10 mM DTT vs PBS.
In data set [4] the test system is PC3 tumors. As to conditions: cohort 2, ATC + durvalumab, 1 or 0.1 nmol/dose.
Data set [5] has as its system murine PD-L1. The following applies: ref [47]; cited from earlier work.
Data set [6] concerns PC3 tumors. As to conditions: 14 days after treatment, 1 nmol + ATC (fig. S10).

For the compound atezolizumab, the linked adverse effect entry in data set [1] was “Type 1 diabetes has been reported”.
Regarding `CC[C@H](C)[C@@H]1NC(=O)[C@H](CCCNC(=N)N)NC(=O)[C@H](CCC(=O)O)NC(=O)[C@H](C)NC(=O)[C@@H]2CSSC[C@H](NC(=O)[C@H](Cc3c[nH]cn3)NC(=O)[C@H](C)NC(=O)[C@H](CCCNC(=N)N)NC(=O)CNC(=O)[C@H]([C@@H](C)CC)NC(=O)[C@H]([C@@H](C)O)NC(=O)[C@H](Cc3ccc(O)cc3)NC(=O)[C@H](CO)NC(=O)[C@H](CCCCN)NC1=O)C(=O)N[C@@H](CO)C(=O)NCC(=O)N[C@@H](CCC(N)=O)C(=O)N[C@@H](Cc1ccc(O)cc1)C(=O)N[C@@H](Cc1ccccc1)C(=O)N[C@@H](CC(=O)O)C(=O)N[C@@H](C(C)C)C(=O)N[C@@H](Cc1c[nH]c3ccccc13)C(=O)N[C@@H](CCCCN)C(=O)N[C@H]1CSSC[C@H](NC(=O)[C@H](Cc3c[nH]cn3)NC(=O)[C@H](C(C)C)NC(=O)[C@H](CCCCN)NC(=O)[C@@H](NC(=O)[C@H](CC(=O)O)NC(=O)[C@H](CCC(=O)O)NC(=O)[C@H](CCC(=O)O)NC(=O)[C@H](CO)NC(=O)CN)CSSC[C@@H](C(=O)N[C@@H](C)C(=O)N[C@@H](C)C(=O)N3CCC[C@H]3C(=O)O)NC(=O)[C@H](Cc3c[nH]cn3)NC(=O)[C@H](CC(=O)O)NC(=O)[C@H](CC(C)C)NC1=O)C(=O)N[C@@H](C(C)C)C(=O)N[C@@H](CCCCN)C(=O)N[C@@H](CCC(=O)O)C(=O)N[C@@H](Cc1c[nH]c3ccccc13)C(=O)N[C@@H](C)C(=O)N[C@@H](C)C(=O)N[C@@H](Cc1ccc(O)cc1)C(=O)N[C@@H](CCCCN)C(=O)N[C@@H](C)C(=O)N2` [PDL1B1G1], the “binding to cynomolgus PD-L1 relative to murine PD-L1” value in data set [2] was “stronger than seen with murine PD-L1”. In addition, the “RP-HPLC mobility shift upon reduction” value in data set [3] is recorded as “substantial mobility shift”.
Turning to durvalumab, the tumor growth suppression entry in data set [4] is listed as “No tumor growth suppression”. In data set [5], the murine cross-reactivity result is “non-murine-cross-reactive”. Moreover, the “ATC infiltration and activation in tumor (human CD8, granzyme B)” value in data set [6] is “recruitment of trace numbers of ATCs infiltrating the tumor”.

(Values after article PMC10118748 (Science translational medicine, 2022).)
